Data: EP1501514B1, “PROTEIN KINASE MODULATORS AND METHODS OF USE” (Exelixis, Inc., priority 2002, dated 2003)

The compounds below were run against T1, Chk1 (Homo sapiens, UniProt O14757) (assay: Chk1 assay: incorporation of γ-33P ATP into immobilized myelin basic protein). Settings: not given.
T1 construct: purchased Upstate Biotechnology
T1 sequence (O14757 1-476): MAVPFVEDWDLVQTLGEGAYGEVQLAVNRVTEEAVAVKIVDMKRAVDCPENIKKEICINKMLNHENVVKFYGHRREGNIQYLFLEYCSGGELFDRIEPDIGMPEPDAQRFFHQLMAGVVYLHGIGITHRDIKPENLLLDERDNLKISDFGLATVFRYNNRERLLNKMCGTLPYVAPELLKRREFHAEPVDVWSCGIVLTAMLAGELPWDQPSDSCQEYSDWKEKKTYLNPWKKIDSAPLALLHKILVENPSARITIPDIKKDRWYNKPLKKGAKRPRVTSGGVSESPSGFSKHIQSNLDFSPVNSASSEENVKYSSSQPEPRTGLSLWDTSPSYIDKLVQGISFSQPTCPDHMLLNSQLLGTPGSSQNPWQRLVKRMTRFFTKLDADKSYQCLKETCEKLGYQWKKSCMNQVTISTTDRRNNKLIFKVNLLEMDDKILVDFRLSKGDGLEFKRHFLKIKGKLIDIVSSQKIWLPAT
Assay type: biochemical
Method: Chk1 and Chk2 assays were performed by measuring incorporation of γ-^33P ATP into immobilized myelin basic protein (MBP). High binding white 384 well plates (Greiner) were coated with MBP (Sigma #M-1891) by incubation of 60ul/well of 20µg/ml MBP in Tris-buffered saline (TBS; 50mM Tris pH 8.0, 138mM NaCl, 2.7mM KCl) for 24 hours at 4° C. Plates were washed 3X with 100µl TBS. Kinase reactions were carried out in a total volume of 34µl in kinase buffer (5mM Hepes pH 7.6, 15mM NaCl, 0.01% bovine gamma globulin (Sigma #I-5506), 10mM MgCl2, 1mM DTT, 0.02% TritonX-100). Compound dilutions were performed in DMSO and added to assay wells to a final DMSO concentration of 1%. Each data point was measured in duplicate, and at least two duplicate assays were performed for each individual compound determination. Chkl and Chk2 enzymes (Upstate Biotechnology) were added to final concentrations of 10nM (Chkl) or 20nM (Chk2). A mixture of unlabeled ATP and γ-^33P ATP was added to start the reaction (2x10^6 cpm of γ-^33P ATP per well (3000Ci/mmole) and either 10µM or 30µM unlabeled ATP (for Chkl and Chk2 assays respectively). The reaction was carried out for 1 hour at room temperature with shaking. Plates were washed 7x with TBS, followed by the addition of 50µl/well scintillation fluid (Wallac). Plates were read using a Wallac Trilux counter. This is only one format of such assays, various other formats are possible, as known to those skilled in the art.
The above assay procedure can be used to determine the IC50 for inhibition and/or the inhibition constant Ki. The IC50 is defined as the concentration of compound required to reduce the enzyme activity by 50% under the conditions of the assay. […] The Ki for a compound may be determined from the IC50 based on three assumptions. First, only one compound molecule binds to the enzyme and there is no cooperativity. […] Third, the enzymatic rate of the enzyme-inhibitor complex is zero. The rate (i.e., compound concentration) data are fitted to the equation: V = Vmax E0 [I-((E0+I0+Kd)-sqrt(((E0+I0+Kd))^2 -4E0 I0))/(2E0)] [formula]

| IC50 [µM] | SMILES |
| --- | --- |
| < 0.05 | Nc1ncc(-c2cccc(C(=O)NCc3ccc(-c4cccs4)cc3)c2)nc1C(=O)N[C@H]1CCCNC1 [compound 854, 3-amino-N-[(3S)-piperidin-3-yl]-6-{3-[({[4-(2-thienyl)phenyl]methyl}amino)carbonyl]phenyl}pyrazine-2-carboxamide] |
| < 0.05 | Cc1ccc(C(=O)Nc2cccc(-c3cnc(N)c(C(=O)N[C@H]4CCCNC4)n3)c2)cn1 [compound 978, 3-amino-6-(3-{[(6-methylpyridin-3-yl)carbonyl]amino}phenyl)-N-[(3S)-piperidin-3-yl]pyrazine-2-carboxamide] |
| < 0.05 | Nc1ncc(-c2cccc(C(=O)NCc3cc(C(F)(F)F)ccc3Cl)c2)nc1C(=O)N[C@H]1CCCNC1 [compound 994, 3-amino-6-{3-[({[2-chloro-5-(trifluoromethyl)phenyl]methyl}amino)carbonyl]phenyl}-N-[(3S)-piperidin-3-yl]pyrazine-2-carboxamide] |
| < 0.05 | Nc1ncc(-c2cccc(C(=O)NCc3ccc(C(F)(F)F)cc3F)c2)nc1C(=O)N[C@H]1CCCNC1 [compound 1001, 3-amino-6-{3-[({[2-fluoro-4-(trifluoromethyl)phenyl]methyl}amino)carbonyl]phenyl}-N-[(3S)-piperidin-3-yl]pyrazine-2-carboxamide] |
| < 0.05 | Nc1ncc(-c2cccc(C(=O)NCc3ccc(F)c(Cl)c3)c2)nc1C(=O)N[C@H]1CCCNC1 [compound 1006, 3-amino-6-[3-({[(3-chloro-4-fluorophenyl)methyl]amino}carbonyl)phenyl]-N-[(3S)-piperidin-3-yl]pyrazine-2-carboxamide] |

Same assay, conditions: Table 11; inhibition given as IC50 class symbol

| IC50 [µM] | SMILES |
| --- | --- |
| 0.05 to 1 | Nc1ncc(-c2cccc(C(=O)NCc3cccnc3)c2)nc1C(=O)N[C@H]1CCNC1 [compound 762, 3-amino-6-(3-{[(pyridin-3-ylmethyl)amino]carbonyl}phenyl)-N-[(3S)-pyrrolidin-3-yl]pyrazine-2-carboxamide] |
| < 0.05 | Nc1ncc(-c2cccc(C(=O)N[C@H]3CCc4ccccc43)c2)nc1C(=O)N[C@H]1CCCNC1 [compound 764, 3-amino-6-(3-{[(1S)-2,3-dihydro-1H-inden-1-ylamino]carbonyl}phenyl)-N-[(3S)-piperidin-3-yl]pyrazine-2-carboxamide] |
| > 10 | CC(C)(C)OC(=O)N1CC[C@H](CNC(=O)c2nc(-c3cccc(C(=O)N[C@H]4CCc5ccccc54)c3)cnc2N)C1 [compound 784, 1,1-dimethylethyl (3R)-3-[({[3-amino-6-(3-{[(1S)-2,3-dihydro-1H-inden-1-ylamino]carbonyl}phenyl)pyrazin-2-yl]carbonyl}amino)methyl]pyrrolidine-1-carboxylate] |
